According to US20120046317A1, “NOVEL HETEROCYCLIC COMPOUNDS” (priority 2009, published 2012):
Like-named read-outs stand apart in the source and are kept apart here.

Tests used:
[1] = test system: AGE-LDL formation (Low density lipoprotein incubated with CuCl2); assay: In vitro inhibition of AGE-LDL formation: LDL incubated with CuCl2, MDA-lysine adduct fluorescence; format: biochemical; settings: LDL with CuCl2 at 37° C.
Method: In vitro Inhibition of AGE-LDL Formation:
Low density lipoprotein (LDL) was incubated with CuCl2 at 37° C. in phosphate buffered saline in the presence and absence of the following compounds. […] Results were expressed as % MDA-lysine adducts accumulation, considering the extent of the same formed upon incubation with CuCl2 alone as 100%.

[2] = rat, in vivo, po, 10 mg/kg
Method: (§1) Summary of Oral Pharmacokinetics of Reference Compound-T and Compound No. 100 in Wistar Rat:
(§2) Single dose pharmacokinetics of Reference compound-T (3-((2-(methylsulfonyl)hydrazino)carbonyl)-1-(2-oxo-2-thienylethyl)pyridinium chloride) and compound no. 100 was studied in male Wistar rat (280-300 gm, n=5) after oral administration at a dose of 10 mg/kg. Blood samples were obtained serially from jugular vein cannulated animals at selected time points and concentration of Reference compound-T and compound no. 100 in plasma was determined by LC-MS/MS. Non-compartmental pharmacokinetic analysis was performed using WinNonlin 5.2. […] 100.

in vivo [3] = settings: male, dog, po, 15 mg/kg
Method: (§3) Non-compartmental pharmacokinetic analysis was performed using WinNonlin 5.2.

[4] = test system: AGE-BSA Formation (Bovine Serum Albumin incubated with ribose); assay: In vitro prevention of advanced glycation endproducts (AGEs) accumulation: BSA incubated with ribose, fluorescence; settings: one week
Method: A reduction in fluorescence intensity in the presence of the test compound is an indication of its ability to prevent accumulation of advanced glycation endproducts.
Bovine Serum Albumin was incubated with ribose alone as well as with ribose and different concentrations of the following compounds under aseptic conditions for one week. At the end of the incubation period fluorescence intensity of the samples was measured at excitation and emission wavelengths of 355 nm and 460 nm respectively.

in vivo [5] = settings: male, Wistar, rat, po, 10 mg/kg
Method: as §1, §2

[6] = male, dog, in vivo, po, 15 mg/kg
Method: as §3

Ob-ZSF1 animal model = settings: cited from earlier work
[7] = Single dose oral pharmacokinetics of Reference compound-T and compound no. 100 in Wistar rat; settings: male Wistar rat, 10 mg/kg
Method: as §1, §2

[8] = Single dose oral pharmacokinetics of Reference compound-T and compound no. 100 in dog; settings: male dog, 15 mg/kg, administered compound in plasma, mean
Method: as §3

patients = settings: phase 2 clinical studies; particularly in more severely affected patients; cited from earlier work
[9] = test system: diabetic spontaneously hypertensive rats; settings: cited from earlier work
[10] = administered compound in plasma, mean

Structure (SMILES)	% Inhibition of AGE-LDL-formation ([1]; Conc. 250 uM)	% Inhibition of AGE-BSA Formation ([4]; Conc. 1 mM)	% Inhibition of AGE-LDL-formation ([1]; Conc. 100 uM)	% Inhibition of AGE-BSA Formation ([4]; Conc. 100 uM)	further results
CS(=O)(=O)NNC(=O)C1=CN(CC(=O)c2cccs2)C=CC1 [Compound no. 100, N′-(methylsulfonyl)-1-[2-oxo-2-(thiophen-2-yl)ethyl]-1,4-dihydropyridine-3-carbohydrazide]	++++ (++++ indicate >30%)	++ (++ indicate 11-20%)	–	–	Absorption [2]: absorbed rapidly; AUC(0-t) (in vivo [3]): 1780 ng·h/mL; Cmax (in vivo [3]): 397 ng/mL; AUC(0-t) (in vivo [5]): 1410 ng·h/mL; Cmax (in vivo [5]): 1350 ng/mL; Maximum plasma concentration of reference compound converted after administration of compound no. 100 in comparison to the administration of ref. compound [6]: ~3.6 times
CS(=O)(=O)NNC(=O)c1ccc[n+](CC(=O)c2cccs2)c1.[Cl-] [TRC4186]	–	–	–	–	Effect on diabetic cardiomyopathy and nephropathy (Ob-ZSF1 animal model): preserved cardiac function and reduced the severity of renal dysfunction
CS(=O)(=O)NNC(=O)c1ccc[n+](CC(=O)c2cccs2)c1.[Cl-] [Reference compound-T, 3-((2-(methylsulfonyl)hydrazino)carbonyl)-1-(2-oxo-2-thienylethyl)pyridinium chloride]	–	–	–	–	Absorption [7]: absorbed rapidly; AUC(0-8 hr) [7, 10]: 203.6 ng·h/mL; Cmax [7, 10]: 100.5 ng/mL; AUC(0-24 hr) [8]: 2477.0 ng·h/mL; Cmax [8]: 258.4 ng/mL
CC(C)(C)c1ccc(S(=O)(=O)NNC(=O)C2CCCN(CC(=O)c3cccs3)C2)cc1 (centres unmarked) [compound 165, N′-[(4-tert-butylphenyl)sulfonyl]-1-[2-oxo-2-(thiophen-2-yl)ethyl]piperidine-3-carbohydrazide]	–	–	+ (+ indicate 0-10%)	+ (+ indicate 0-10%)	–
CS(=O)(=O)NNC(=O)C1=CN(CC(=O)c2ccc(Cl)s2)C=CC1 [Compound no. 6, 1-[2-(5-chlorothiophen-2-yl)-2-oxoethyl]-N′-(methylsulfonyl)-1,4-dihydropyridine-3-carbohydrazide]	++++ (++++ indicate >30%)	+++ (+++ indicate 21-30%)	–	–	–
Cc1sc[n+](CC(=O)c2ccccc2)c1C [Alagebrium]	–	–	–	–	Effect on cardiac function and systolic blood pressure (patients): effective in improving cardiac function and uncontrolled systolic blood pressure
Cc1ccc(C(=O)CN2CCC=C(C(=O)NNS(C)(=O)=O)C2)s1 [compound 174, N′-(methylsulfonyl)-1-[2-(5-methylthiophen-2-yl)-2-oxoethyl]-1,2,5,6-tetrahydropyridine-3-carbohydrazide]	++++ (++++ indicate >30%)	+ (+ indicate 0-10%)	–	–	–
COc1ccc(C2=CN(CC(=O)c3cccs3)C=C(C(=O)NNS(C)(=O)=O)C2)cc1 [compound 151, 5-(4-methoxyphenyl)-N′-(methylsulfonyl)-1-[2-oxo-2-(thiophen-2-yl)ethyl]-1,4-dihydropyridine-3-carbohydrazide]	–	–	+ (+ indicate 0-10%)	+ (+ indicate 0-10%)	–
Cc1ccc(C(=O)CN2CC=CC(C(=O)NNS(C)(=O)=O)C2)s1 (centres unmarked) [compound 182, N′-(methylsulfonyl)-1-[2-(5-methylthiophen-2-yl)-2-oxoethyl]-1,2,3,6-tetrahydropyridine-3-carbohydrazide]	+++ (+++ indicate 21-30%)	+ (+ indicate 0-10%)	–	–	–
O=C(NNS(=O)(=O)c1ccccc1)C1=CCCN(CC(=O)c2cccs2)C1 [compound 169, 1-[2-oxo-2-(thiophen-2-yl)ethyl]-N′-(phenylsulfonyl)-1,2,5,6-tetrahydropyridine-3-carbohydrazide]	–	–	+ (+ indicate 0-10%)	+ (+ indicate 0-10%)	–
COc1ccc(C(=O)CN2CCCC(C(=O)NNS(=O)(=O)c3ccc(C)cc3)C2)cc1 (centres unmarked) [compound 162, 1-[2-(4-methoxyphenyl)-2-oxoethyl]-N′-[(4-methylphenyl)sulfonyl]piperidine-3-carbohydrazide]	–	–	++++ (++++ indicate >30%)	+ (+ indicate 0-10%)	–
CS(=O)(=O)NNC(=O)c1ccc[n+](CC(=O)c2cccs2)c1.[Br-] [TRC4149]	–	–	–	–	Effect on endothelial and cardiac function [9]: preserved endothelial and cardiac function
CS(=O)(=O)NNC(=O)C1=CCCN(CC(=O)c2cccs2)C1 [compound 185, N′-(methylsulfonyl)-1-[2-oxo-2-(thiophen-2-yl)ethyl]-1,2,5,6-tetrahydropyridine-3-carbohydrazide]	+++ (+++ indicate 21-30%)	+ (+ indicate 0-10%)	–	–	–
CS(=O)(=O)NNC(=O)C1C=CCN(CC(=O)c2cccs2)C1 (centres unmarked) [compound 186, N′-(methylsulfonyl)-1-[2-oxo-2-(thiophen-2-yl)ethyl]-1,2,3,6-tetrahydropyridine-3-carbohydrazide]	++++ (++++ indicate >30%)	+ (+ indicate 0-10%)	–	–	–
O=C(NNC(=O)C1=CCCN(CC(=O)c2cccs2)C1)Nc1ccc(Cl)cc1 [compound 171, N-(4-chlorophenyl)-2-({1-[2-oxo-2-(thiophen-2-yl)ethyl]-1,2,5,6-tetrahydropyridin-3-yl}carbonyl)hydrazinecarboxamide]	–	–	+ (+ indicate 0-10%)	+ (+ indicate 0-10%)	–
Cc1ccc(S(=O)(=O)NNC(=O)C2=CN(CC(=O)c3cccs3)C=CC2)cc1 [compound 147, N′-[(4-methylphenyl)sulfonyl]-1-[2-oxo-2-(thiophen-2-yl)ethyl]-1,4-dihydropyridine-3-carbohydrazide]	–	–	++++ (++++ indicate >30%)	+++ (+++ indicate 21-30%)	–
O=C(CN1CCCC(C(=O)NNS(=O)(=O)c2ccccc2)C1)c1cccs1 (centres unmarked) [compound 160, 1-[2-oxo-2-(thiophen-2-yl)ethyl]-N′-(phenylsulfonyl)piperidine-3-carbohydrazide]	–	–	+ (+ indicate 0-10%)	+ (+ indicate 0-10%)	–
CS(=O)(=O)NNC(=O)C1CCCN(CC(=O)c2cccs2)C1 (centres unmarked) [compound 184, N′-(methylsulfonyl)-1-[2-oxo-2-(thiophen-2-yl)ethyl]piperidine-3-carbohydrazide]	+++ (+++ indicate 21-30%)	+ (+ indicate 0-10%)	–	–	–
COc1ccc(C(=O)CN2C=CCC(C(=O)NNS(C)(=O)=O)=C2)cc1 [compound 144, 1-[2-(4-methoxyphenyl)-2-oxoethyl]-N′-(methylsulfonyl)-1,4-dihydropyridine-3-carbohydrazide]	++++ (++++ indicate >30%)	+ (+ indicate 0-10%)	–	–	–
O=C(NCCO)C1=CN(CC(=O)c2cccs2)CCC1 [compound 158, N-(2-hydroxyethyl)-1-[2-oxo-2-(thiophen-2-yl)ethyl]-1,4,5,6-tetrahydropyridine-3-carboxamide]	–	–	+ (+ indicate 0-10%)	–	% Inhibition of AGE-BSA Formation ([4]; Conc. 250 uM): + (+ indicate 0-10%)
CS(=O)(=O)NNC(=O)C1=CCCN(CC(=O)c2ccc(Br)cc2)C1 [compound 167, 1-[2-(4-bromophenyl)-2-oxoethyl]-N′-(methylsulfonyl)-1,2,5,6-tetrahydropyridine-3-carbohydrazide]	+ (+ indicate 0-10%)	+ (+ indicate 0-10%)	–	–	–
COc1ccc(C(=O)CN2CC=CC(C(=O)NNS(C)(=O)=O)C2)cc1 (centres unmarked) [compound 181, 1-[2-(4-methoxyphenyl)-2-oxoethyl]-N′-(methylsulfonyl)-1,2,3,6-tetrahydropyridine-3-carbohydrazide]	–	–	+ (+ indicate 0-10%)	–	% Inhibition of AGE-BSA Formation ([4]; Conc. 250 uM): + (+ indicate 0-10%)
